The assay deals with T1, OX40 (Homo sapiens, UniProt P43489).
T1 construct: host or cells: OX40 Jurkat cells (NF-kB luciferase reporter)
T1 sequence (P43489 29-277): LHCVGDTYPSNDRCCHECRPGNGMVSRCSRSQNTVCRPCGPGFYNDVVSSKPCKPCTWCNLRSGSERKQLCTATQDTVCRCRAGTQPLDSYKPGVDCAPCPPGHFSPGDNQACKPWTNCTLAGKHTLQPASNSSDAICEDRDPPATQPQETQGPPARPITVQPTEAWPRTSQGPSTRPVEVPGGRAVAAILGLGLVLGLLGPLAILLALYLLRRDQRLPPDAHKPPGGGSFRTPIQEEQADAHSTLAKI
Nature of the assay: Promega OX40 cell-activity assay (NF-κB luciferase read-out in OX40 Jurkat cells). The following applies: synthetic OX40 tetramer, FIG. 1. It is filed as cell-based.

The structures appear in SMILES notation.

Description: Promega have developed an OX40 cell-activity assay that uses NF-κB luciferase luminescence as a read-out of OX40 activation in Jurkat cells (Promega CS197704). On the day of the experiment, prepare medium by thawing FBS and adding 5% FBS to RPMI-1640. Thaw OX40 Jurkat cells in the water-bath and then add 500 μl cells to 11.5 ml pre-warmed 5 FBS RPMI-1640 medium. Add 60 μl cells/well to white cell culture plates. Proceed to dilute agonists at concentration giving the maximum fold induction and then titrate down the amount in a sterile 96 well-plate. […] Prepare enough reagent for duplicate samples and then perform ⅓ dilution series or 1/10 dilution series. Include positive control OX40L trimer (R&D systems #1054-OX-010) and negative control monomeric peptide. Add 20 μl of agonist as duplicate samples or 5% FBS RPMI-1640 alone as background control.
Co-incubate cells together with agonists for 5 hours at 37° C., 5% CO2. After 5 hours, thaw Bio-Glo™ and develop the assay at room-temperature. Add 80 μl Bio-Glo™ per well and incubate 5-10 min. Read luciferase signal on CLARIOStar plate-reader using the MARS program and normalize the fold induction relative to background (medium alone). Analyse data by transforming the data to x=log (X), then plot log (agonist) vs. response variable slope (4 parameters) to calculate EC50 values.

Regarding `CC(C)C[C@@H]1NC(=O)[C@@H](NC(=O)[C@H](C)N)CSCCC(=O)N2CN3CN(C2)C(=O)CCSC[C@H](NC(=O)[C@@H]2CCCN2C(=O)[C@H](CO)NC(=O)[C@H](Cc2ccc(O)cc2)NC1=O)C(=O)N[C@@H](Cc1c[nH]c2ccccc12)C(=O)N[C@@H](Cc1c[nH]cn1)C(=O)N1CCC[C@H]1C(=O)N[C@@H](CC(C)C)C(=O)N[C@@H](CC(N)=O)C(=O)N[C@@H](CC(=O)O)C(=O)N[C@H](C(=O)N[C@@H](C)C(=O)N[C@@H](CCCCNC(=O)CCc1cn(CCOCCOCCOCCOCCOCCOCCOCCOCCOCCOCCOCCOCCOCCOCCOCCOCCOCCOCCOCCOCCOCCOCCOCCNC(=O)CCOCC(COCCC(=O)NCCOCCOCCOCCOCCOCCOCCOCCOCCOCCOCCOCCOCCOCCOCCOCCOCCOCCOCCOCCOCCOCCOCCOCCn2cc(CCC(=O)NCCCC[C@H](NC(=O)[C@H](C)NC(=O)[C@@H]4CSCCC(=O)N5CN6CN(C5)C(=O)CCSC[C@H](NC(=O)[C@@H]5CCCN5C(=O)[C@H](CO)NC(=O)[C@H](Cc5ccc(O)cc5)NC(=O)[C@H](CC(C)C)NC(=O)[C@@H](NC(=O)[C@H](C)N)CSCCC6=O)C(=O)N[C@@H](Cc5c[nH]c6ccccc56)C(=O)N[C@@H](Cc5c[nH]cn5)C(=O)N5CCC[C@H]5C(=O)N[C@@H](CC(C)C)C(=O)N[C@@H](CC(N)=O)C(=O)N[C@@H](CC(=O)O)C(=O)N4)C(N)=O)nn2)(COCCC(=O)NCCOCCOCCOCCOCCOCCOCCOCCOCCOCCOCCOCCOCCOCCOCCOCCOCCOCCOCCOCCOCCOCCOCCOCCn2cc(CCC(=O)NCCCC[C@H](NC(=O)[C@H](C)NC(=O)[C@@H]4CSCCC(=O)N5CN6CN(C5)C(=O)CCSC[C@H](NC(=O)[C@@H]5CCCN5C(=O)[C@H](CO)NC(=O)[C@H](Cc5ccc(O)cc5)NC(=O)[C@H](CC(C)C)NC(=O)[C@@H](NC(=O)[C@H](C)N)CSCCC6=O)C(=O)N[C@@H](Cc5c[nH]c6ccccc56)C(=O)N[C@@H](Cc5c[nH]cn5)C(=O)N5CCC[C@H]5C(=O)N[C@@H](CC(C)C)C(=O)N[C@@H](CC(N)=O)C(=O)N[C@@H](CC(=O)O)C(=O)N4)C(N)=O)nn2)COCCC(=O)NCCOCCOCCOCCOCCOCCOCCOCCOCCOCCOCCOCCOCCOCCOCCOCCOCCOCCOCCOCCOCCOCCOCCOCCn2cc(CCC(=O)NCCCC[C@H](NC(=O)[C@H](C)NC(=O)[C@@H]4CSCCC(=O)N5CN6CN(C5)C(=O)CCSC[C@H](NC(=O)[C@@H]5CCCN5C(=O)[C@H](CO)NC(=O)[C@H](Cc5ccc(O)cc5)NC(=O)[C@H](CC(C)C)NC(=O)[C@@H](NC(=O)[C@H](C)N)CSCCC6=O)C(=O)N[C@@H](Cc5c[nH]c6ccccc56)C(=O)N[C@@H](Cc5c[nH]cn5)C(=O)N5CCC[C@H]5C(=O)N[C@@H](CC(C)C)C(=O)N[C@@H](CC(N)=O)C(=O)N[C@@H](CC(=O)O)C(=O)N4)C(N)=O)nn2)nn1)C(N)=O)CSCCC3=O` [BCY12019], the “EC50 (range in words)” value is “low nanomolar range”.
